In patent US20120190752A1, “EXO-S-MECAMYLAMINE METHOD, USE, AND COMPOUND FOR TREATMENT” (Targacept Inc., priority 2009, published 2012):

Tested on: subjects with major depressive disorder (MDD) who were inadequate responders to citalopram
Assay: MADRS total score, Phase 2b add-on trial
Assay type: in vivo, human
Excerpt: The Montgomery-Asberg Depression Rating Scale (abbreviated MADRS) is a ten-item diagnostic questionnaire which psychiatrists may use to measure the severity of depressive episodes in patients with mood disorders (Montgomery et al. 1979). It was designed in 1979 by British and Swedish researchers as an adjunct to the Hamilton Rating Scale for Depression (HAMD) which would be more sensitive to the changes brought on by antidepressants and other forms of treatment than the HAMD. There is, however, a high degree of statistical correlation between scores on the two measures. In more detail, a multi-center double-blind, randomized, placebo-controlled, parallel group, flexible dose titration study of TC-5214 as adjunctive therapy in subjects with major depressive disorder (MDD) who were inadequate responders to citalopram was conducted in centers in the US and India. The study consisted of a screening period, baseline/washout period, open-label phase, double-blind phase, and a follow-up visit. Subject participation in the study could continue for up to 16 weeks of treatment. Following a washout period of up to 28 days for other antidepressants, subjects with MDD and a MADRS total score >/=28 and a Clinical Global Impression-Severity (CGI-S) score >/=4 were enrolled on Day 1 into an open-label citalopram-only phase of the study. This phase lasted 8 weeks, with citalopram (CIT) dose increased from a once-daily dose of 20 mg (Day 1 through Week 4) to 40 mg (Week 4 through Week 8). A total of 579 subjects entered the open-label citalopram phase. At Week 8, subjects who tolerated 40 mg CIT, but whose MADRS score was reduced <50% from baseline and no lower than 17, and CGI-S≧4, were considered inadequate responders. These subjects (n=270) were randomized in a double-blind fashion to receive either placebo or TC-5214-23 as add-on therapy to continued CIT. The double-blind phase of the study also lasted 8 weeks (Week 8 to Week 16). Study drug, TC-5214-23 or placebo, was started at 2 mg daily (1 mg twice per day [BID] dosing), added on to continuing CIT (40 mg PO qd). After 2 weeks of treatment, the dose of TC-5214 could be increased to 4 mg (2 mg BID) or continued unchanged, with up-titration based upon good tolerability and inadequate therapeutic response. After a further 2 weeks, the dose of TC-5214 could be increased again to 8 mg (4 mg BID) if judged appropriate by the investigator, based upon good tolerability and inadequate therapeutic response. At any time during the double-blind phase of the study, placebo or TC-5214-23 could be reduced to the previous dose level following the emergence of unacceptable adverse events (AEs). […] At this follow-up, any signs or symptoms of relapse were evaluated. If a subject was prematurely discontinued from the study between Week 8 and Week 16 for any reason, the investigator was to make every effort to perform all evaluations as per protocol, assuming the subject had reached the end of the double-blind add-on treatment phase. These evaluations were to be made as soon as possible and within 2 weeks of discontinuation. […] There was no meaningful difference in results as a function of age, gender, site, or smoking status. With regard to efficacy endpoints, the following tables present efficacy used in the ITT (Intent-to-Treat) and PP (Per Protocol) populations unless otherwise specific. The primary inference was based upon Week 16 visit using the ITT population. Change from baseline was obtained by subtracting the baseline values from the individual on-treatment values. Change from Week 16 was obtained by subtracting the Week 16 values from the individual follow-up visit (Week 18/19) values. If either the baseline or Week 16 or on-treatment or follow-up value was missing, the change from baseline or Week 16 value was also set to missing. […]

[1] = ITT (N = 133), Double Blind Week 16
[2] = ITT (N = 133), Double Blind Week 18 (Follow-up)
[3] = ITT and PP populations, result in words
[4] = ITT population, Week 8 (double-blind baseline) to Week 16
[5] = ITT, Double Blind Week 18 LOCF (Follow-up), change from Week 16
[6] = PP (N = 113), Double Blind Week 16
[7] = PP (N = 113), Double Blind Week 18 (Follow-up)
[8] = PP, Double Blind Week 16 LOCF (change from Week 8)
[9] = PP, Double Blind Week 18 LOCF (Follow-up), change from Week 16

CNC1(C)C2CCC(C2)C1(C)C (stereo in doubt) [TC-5214, (S)—N,2,3,3-tetramethylnorbornan-2-amine]
MADRS reduction from baseline ≧50%: Subjects with Response (number) [1]: 89 | MADRS reduction from baseline ≧50%: Subjects with Response (percentage) [1]: (67%) | MADRS reduction from baseline ≧50%: Subjects without Response (number) [1]: 44 | MADRS reduction from baseline ≧50%: Subjects without Response (percentage) [1]: (33%) | MADRS ≦10: Subjects with Remission (number) [1]: 69 | MADRS ≦10: Subjects with Remission (percentage) [1]: (52%) | MADRS ≦10: Subjects without Remission (number) [1]: 64 | MADRS ≦10: Subjects without Remission (percentage) [1]: (48%) | MADRS ≦12: Subjects with Remission (number) [1]: 77 | MADRS ≦12: Subjects with Remission (percentage) [1]: (58%) | MADRS ≦12: Subjects without Remission (number) [1]: 56 | MADRS ≦12: Subjects without Remission (percentage) [1]: (42%) | MADRS reduction from baseline ≧50%: Subjects with Response (number) [2]: 94 | MADRS reduction from baseline ≧50%: Subjects with Response (percentage) [2]: (71%) | MADRS reduction from baseline ≧50%: Subjects without Response (number) [2]: 39 | MADRS reduction from baseline ≧50%: Subjects without Response (percentage) [2]: (29%) | MADRS ≦10: Subjects with Remission (number) [2]: 73 | MADRS ≦10: Subjects with Remission (percentage) [2]: (55%) | MADRS ≦10: Subjects without Remission (number) [2]: 60 | MADRS ≦10: Subjects without Remission (percentage) [2]: (45%) | MADRS ≦12: Subjects with Remission (number) [2]: 86 | MADRS ≦12: Subjects with Remission (percentage) [2]: (65%) | MADRS ≦12: Subjects without Remission (number) [2]: 47 | MADRS ≦12: Subjects without Remission (percentage) [2]: (35%) | MADRS remission (≦10 or ≦12) proportion compared with placebo [3]: higher proportion of subjects meeting the remission criteria | MADRS responders (reduction from baseline ≧50%) proportion compared with placebo [3]: higher proportion of responders | MADRS total score change from baseline compared with placebo [3]: statistically significant decreases (improvements) | MADRS Total Score: Adjusted Mean Change TC-5214—Placebo (SD) [4]: −7.54 (10.13) | MADRS Total Score: Effect Size [4]: 0.74 | MADRS Mean Difference between TC-5214 and Placebo (ITT, Double Blind Week 16 LOCF (change from Week 8)): 7.54 | MADRS Adjusted Mean change [5]: −0.87 | MADRS Mean Difference between TC-5214 and Placebo [5]: −0.54 | MADRS Difference vs Placebo + CIT (ITT, Week 8 to Week 16 LOCF): −7.45 | MADRS Adj. Mean change (ITT, change from Week 8 (double-blind baseline) to Week 16 LOCF, add-on to citalopram): −17.26 | MADRS reduction from baseline ≧50%: Subjects with Response (number) [6]: 84 | MADRS reduction from baseline ≧50%: Subjects with Response (percentage) [6]: (74%) | MADRS reduction from baseline ≧50%: Subjects without Response (number) [6]: 29 | MADRS reduction from baseline ≧50%: Subjects without Response (percentage) [6]: (26%) | MADRS ≦10: Subjects with Remission (number) [6]: 67 | MADRS ≦10: Subjects with Remission (percentage) [6]: (59%) | MADRS ≦10: Subjects without Remission (number) [6]: 46 | MADRS ≦10: Subjects without Remission (percentage) [6]: (41%) | MADRS ≦12: Subjects with Remission (number) [6]: 72 | MADRS ≦12: Subjects with Remission (percentage) [6]: (64%) | MADRS ≦12: Subjects without Remission (number) [6]: 41 | MADRS ≦12: Subjects without Remission (percentage) [6]: (36%) | MADRS reduction from baseline ≧50%: Subjects with Response (number) [7]: 89 | MADRS reduction from baseline ≧50%: Subjects with Response (percentage) [7]: (79%) | MADRS reduction from baseline ≧50%: Subjects without Response (number) [7]: 24 | MADRS reduction from baseline ≧50%: Subjects without Response (percentage) [7]: (21%) | MADRS ≦10: Subjects with Remission (number) [7]: 70 | MADRS ≦10: Subjects with Remission (percentage) [7]: (62%) | MADRS ≦10: Subjects without Remission (number) [7]: 43 | MADRS ≦10: Subjects without Remission (percentage) [7]: (38%) | MADRS ≦12: Subjects with Remission (number) [7]: 81 | MADRS ≦12: Subjects with Remission (percentage) [7]: (72%) | MADRS ≦12: Subjects without Remission (number) [7]: 32 | MADRS ≦12: Subjects without Remission (percentage) [7]: (28%) | MADRS Adjusted Mean change [8]: −19.34 | MADRS Mean Difference between TC-5214 and Placebo [8]: 7.97 | MADRS Adjusted Mean change [9]: −1.10 | MADRS Mean Difference between TC-5214 and Placebo [9]: −0.20
